Reference: PubChem BioAssay (NCI)
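Protocol summary: plate cells (96-well), add compound at 5 concentrations, incubate 48 h, interpolate endpoints linearly. At the TGI there is no net growth.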

Tests used:
Assay in all cases: NCI tumour cell line growth inhibition, 48 h
[1] = tested on: ACHN renal
[2] = tested on: HOP-62 NSCLC
[3] = tested on: LOX IMVI melanoma
[4] = tested on: 786-0 renal
[5] = tested on: NCI-H460 lung
[6] = tested on: CCRF-CEM leukemia
[7] = tested on: SF-295 CNS
[8] = tested on: MDA-MB-231 breast
[9] = tested on: SN12C renal
[10] = tested on: CAKI-1 renal
[11] = tested on: HCT-116 colon
[12] = tested on: SNB-75 CNS
[13] = tested on: NCI-H23 lung
[14] = tested on: KM12 colon
[15] = tested on: OVCAR-8 ovarian
[16] = tested on: A498 renal
[17] = tested on: U251 CNS
[18] = tested on: HCT-15 colon
[19] = tested on: TK-10 renal
[20] = tested on: MDA-N
[21] = tested on: UO-31 renal
[22] = tested on: MALME-3M melanoma
[23] = tested on: IGROV1 ovarian
[24] = tested on: PC-3 prostate
[25] = tested on: HL-60(TB) leukemia
[26] = tested on: HT29 colon
[27] = tested on: MCF7 breast
[28] = tested on: COLO 205 colon
[29] = tested on: NCI-H522 lung
[30] = tested on: HS 578T breast
[31] = tested on: NCI-H226 lung
[32] = tested on: SW-620 colon
[33] = tested on: SNB-19 CNS
[34] = tested on: M14 melanoma
[35] = tested on: MOLT-4 leukemia
[36] = tested on: SK-OV-3 ovarian
[37] = tested on: RXF 393 renal
[38] = tested on: K-562 leukemia
[39] = tested on: UACC-257 melanoma
[40] = tested on: HOP-92 NSCLC
[41] = tested on: UACC-62 melanoma
[42] = tested on: T-47D breast
[43] = tested on: A549 NSCLC
[44] = tested on: SF-268 CNS
[45] = tested on: OVCAR-4 ovarian
[46] = tested on: MDA-MB-435
[47] = tested on: DU-145 prostate
[48] = tested on: SK-MEL-5 melanoma
[49] = tested on: NCI/ADR-RES ovarian
[50] = tested on: RPMI-8226 leukemia
[51] = tested on: OVCAR-5 ovarian
[52] = tested on: SK-MEL-2 melanoma
[53] = tested on: SF-539 CNS
[54] = tested on: SK-MEL-28 melanoma
[55] = tested on: EKVX NSCLC
[56] = tested on: BT-549 breast
[57] = tested on: OVCAR-3 ovarian
[58] = tested on: HCC-2998 colon

Measured: TGI

NC(=O)Cc1nc2c(=O)[nH]cnc2n1C1OC(CO)C(O)C1O (stereo not drawn)
> 100 µM: all assays above
